Data published in article PMC3215401 (Biosensors & bioelectronics, 2011).

Key:
Assay type in all cases: cell-based, human
[1] = target: PPARγ LBD, sensor 110PPARγ383 (UniProt P37231+P9WHJ3, V318L)
[2] = target: PPARγ LBD, sensor 94_1GS_PPARγ_1GS_403 (UniProt P37231+P9WHJ3, V318L)
[3] = target: PPARγ LBD, sensor 110PPARγ_3GS_403 (UniProt P37231+P9WHJ3, V318L)
[4] = target: PPARγ LBD, sensor 100PPARγ383 (UniProt P37231+P9WHJ3, V318L)
[5] = target: PPARγ LBD, sensor 110PPARγ393 (UniProt P37231+P9WHJ3, V318L)
[6] = target: PPARγ LBD, sensor 94PPARγ403 (UniProt P37231+P9WHJ3, V318L)
[7] = target: PPARγ LBD, sensor 110PPARγ_3GS_383 (UniProt P37231+P9WHJ3, V318L)

SMILES	effect on cell growth [1]	effect on cell growth [2]	EC50 [3]	effect on cell growth [4]	effect on cell growth [5]	EC50 [1]	EC50 [2] [nM]	effect on cell growth [6]	effect on cell growth [7]	IC50 ([1]; read-out: IC50 for antagonism) [nM]
C[C@]12CC[C@@H]3c4ccc(O)cc4CC[C@H]3[C@@H]1CC[C@@H]2O [E2, 17β-estradiol]	no significant effect									
CCCCC/C=C/C=C1/C(=O)C=C[C@@H]1C/C=C\CCCC(=O)O [15D-PGJ2, 15-deoxy-Δ^12,14-Prostaglandin J2]	didn't induce a significant cell growth signal	strongest observed response	could not be calculated	significant response	almost no effect	could not be calculated				
O=C(Nc1ccccc1)c1cc([N+](=O)[O-])ccc1Cl [GW9662]	inhibited cell growth		1100 ± 200 nM	inhibitory effect	increased cell growth substantially		500 ± 100	strong positive responses	weak positive response	1800 ± 1200
